According to ChEMBL document CHEMBL2203072, “Enhanced anti-influenza agents conjugated with anti-inflammatory activity” (J Med Chem, 2012):
pEC50, pIC50: −log10 of the molar value. Activity calls are given as the source filed them. The rule behind the calls is not given here.

Assays:
[1] = molecular target: Neuraminidase (Influenza A virus (strain A/Wilson-Smith/1933 H1N1) (Influenza A virus(strain A/WS/1933 H1N1)), UniProt P03470); assay: Inhibition of Influenza A virus A/WSN/1933(H1N1)) neuraminidase in the presence of 2'-(4-methyl-umbelliferyl)-alphaD-N-acetylneuraminic acid substrate after 10 mins by fluorometric assay
Plasma [2] = assay: Metabolic stability in Sprague-Dawley rat plasma after 24 hrs by MALDI-TOF analysis; type: ADME, cell-free
Influenza A virus [3] = assay: Antiviral activity against Influenza A virus (A/VietNam/1194/2004(H5N1)) NIBRG-14 infected in BALB/c mouse assessed as protection from virus-induced death at 12 umol/kg/day, intranasally administered bid on days 1 to 4 and day 0 of infection measured over 14 days; type: functional, organism-based
Plasma [4] = assay: Metabolic stability in Sprague-Dawley rat plasma after 24 hrs by LC-QTOF MS analysis; type: ADME, cell-free
Influenza A virus [5] = assay: Antiviral activity against Influenza A virus (A/WSN/1933(H1N1)) infected in MDCK cells assessed as inhibition of virus induced cytopathic effect; type: functional, organism-based
Influenza A virus [6] = assay: Antiviral activity against Influenza A virus (A/California/07/2009(H1N1)) infected in BALB/c mouse assessed as protection from virus-induced death at 0.012 umol/kg/day, intranasally administered bid on days 1 to 4 and day 0 of infection measured over 14 days; type: functional
Influenza A virus [7] = assay: Antiviral activity against Influenza A virus (A/VietNam/1194/2004(H5N1)) NIBRG-14 infected in BALB/c mouse assessed as protection from virus-induced death at 1.2 umol/kg/day, intranasally administered bid on days 1 to 4 and day 0 of infection measured over 14 days; type: functional, organism-based
MDCK = assay: Cytotoxicity against MDCK cells at 100 uM; type: cell-based, Canis lupus familiaris; details: dog
Influenza A virus [8] = assay: Antiviral activity against Influenza A virus (A/California/07/2009(H1N1)) infected in BALB/c mouse assessed as protection from virus-induced death at 1.2 umol/kg/day, intranasally administered bid on days 1 to 4 and day 0 of infection measured after 14 days; type: functional
Influenza A virus [9] = assay: Antiviral activity against Influenza A virus (A/California/07/2009(H1N1)) infected in BALB/c mouse assessed as protection from virus-induced death at 0.12 umol/kg/day, intranasally administered bid on days 1 to 4 and day 0 of infection measured over 14 days; type: functional
Influenza A virus [10] = assay: Antiviral activity against Influenza A virus (A/California/07/2009(H1N1)) infected in BALB/c mouse assessed as protection from virus-induced death at 1.2 umol/kg/day, intranasally administered bid on days 1 to 4 and day 0 of infection measured after 12 days; type: functional, organism-based
Mus musculus [11] = assay: Antiinflammatory activity in mouse infected with Influenza A virus (A/VietNam/1194/2004(H5N1)) NIBRG-14 assessed as reduction in IL6 level in serum at 12 umol/kg/day, intranasally administered after 72 hrs by ELISA; type: functional, organism-based
Mus musculus [12] = assay: Antiinflammatory activity in mouse infected with Influenza A virus (A/VietNam/1194/2004(H5N1)) NIBRG-14 assessed as reduction in IFN-gamma level in serum at 12 umol/kg/day, intranasally administered after 72 hrs by ELISA; type: functional, organism-based
Influenza A virus [13] = assay: Antiviral activity against Influenza A virus (A/California/07/2009(H1N1)) infected in BALB/c mouse assessed as protection from virus-induced death at 12 umol/kg/day, intranasally administered bid on days 1 to 4 and day 0 of infection measured over 14 days; type: functional, organism-based
RAW264.7 [14] = assay: Antiinflammatory activity in LPS-activated mouse RAW264.7 cells assessed as inhibition of LPS induced TNFalpha production treated 30 mins prior to LPS challenge measured after 6 hrs by RT-PCR analysis; type: functional, cell-based
Influenza A virus [15] = assay: Antiviral activity against recombinant Influenza A virus (A/VietNam/1194/2004(H5N1)) NIBRG-14 assessed as inhibition of virus induced cytopathic effect; type: functional, organism-based
RAW264.7 [16] = assay: Antiinflammatory activity in LPS-activated mouse RAW264.7 cells assessed as inhibition of LPS induced IL6 production treated 30 mins prior to LPS challenge measured after 6 hrs by RT-PCR analysis; type: functional, cell-based
Plasma [17] = assay: Metabolic stability in Sprague-Dawley rat plasma assessed as compound degradation after 24 hrs by MALDI-TOF analysis; type: ADME, cell-free
Plasma [18] = assay: Metabolic stability in Sprague-Dawley rat plasma assessed as release of zanamivir and caffiec acid after 24 hrs by MALDI-TOF analysis; type: ADME, cell-free
Plasma [19] = assay: Metabolic stability in Sprague-Dawley rat plasma assessed as release of zanamivir and caffiec acid after 24 hrs by LC-QTOF MS analysis; type: ADME, cell-free
Influenza A virus [20] = assay: Antiviral activity against Influenza A virus (A/California/07/2009(H1N1)) infected in BALB/c mouse assessed as protection from virus-induced death at 0.0012 umol/kg/day, intranasally administered bid on days 1 to 4 and day 0 of infection measured over 14 days; type: functional, organism-based
Plasma [21] = assay: Metabolic stability in Sprague-Dawley rat plasma assessed as formation of compound 6 after 24 hrs by LC-QTOF MS analysis; type: ADME, cell-free
Influenza A virus [22] = assay: Ratio of zanamivir EC50 to compound EC50 for Influenza A virus (A/VietNam/1194/2004(H5N1)) NIBRG-14; type: functional
Plasma [23] = assay: Metabolic stability in Sprague-Dawley rat plasma assessed as formation of compound 6 after 24 hrs by MALDI-TOF analysis; type: ADME, cell-free
Plasma [24] = assay: Metabolic stability in Sprague-Dawley rat plasma assessed as compound degradation after 24 hrs by LC-QTOF MS analysis; type: ADME, cell-free

Chain of Neuraminidase (Influenza A virus (strain A/Wilson-Smith/1933 H1N1) (Influenza A virus(strain A/WS/1933 H1N1)), UniProt P03470) (P03470 whole entry): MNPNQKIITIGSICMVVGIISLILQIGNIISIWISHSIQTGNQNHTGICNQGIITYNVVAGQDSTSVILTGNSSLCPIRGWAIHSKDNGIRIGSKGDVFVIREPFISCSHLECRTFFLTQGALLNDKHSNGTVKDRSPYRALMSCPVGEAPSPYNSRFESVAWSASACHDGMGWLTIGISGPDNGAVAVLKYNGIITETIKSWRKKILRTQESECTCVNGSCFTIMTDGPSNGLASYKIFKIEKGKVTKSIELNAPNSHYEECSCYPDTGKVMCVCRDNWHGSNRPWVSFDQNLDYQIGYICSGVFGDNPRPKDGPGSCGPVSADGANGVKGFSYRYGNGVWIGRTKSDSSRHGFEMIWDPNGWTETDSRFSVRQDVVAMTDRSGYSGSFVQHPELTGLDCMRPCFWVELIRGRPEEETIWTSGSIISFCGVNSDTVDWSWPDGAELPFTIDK

SMILES	pIC50 [1]	pEC50 (Influenza A virus [5])	Activity (MDCK)	also measured
CC(=O)N[C@H]1[C@H]([C@H](OC(=O)NCCCNC(=O)/C=C/c2ccc(O)c(O)c2)[C@H](O)CO)OC(C(=O)O)=C[C@@H]1NC(=N)N	7.38	8.29	Non-toxic	Stability (Plasma [2]): Stable; Activity (Influenza A virus [3]): Active; Stability (Plasma [4]): Stable; Activity (Influenza A virus [6]): inactive; Activity (Influenza A virus [7]): Active; Activity (Influenza A virus [8]): 100%; Activity (Influenza A virus [9]): 50%
CC(=O)N[C@H]1[C@H]([C@H](O)[C@H](O)CO)OC(C(=O)OCCCOC(=O)/C=C/c2ccc3c(c2)OCO3)=C[C@@H]1NC(=N)N	5.40	7.55	Non-toxic	–
CC(=O)N[C@H]1[C@H]([C@H](O)[C@H](O)CO)OC(C(=O)O)=C[C@@H]1NC(=N)N [ZANAMIVIR]	–	8.46	–	Activity (Influenza A virus [10]): inactive; Activity (Mus musculus [11]): Active; Activity (Influenza A virus [3]): inactive; Activity (Mus musculus [12]): Active; Activity (Influenza A virus [13]): Active
CC(=O)N[C@H]1[C@H]([C@H](OC(=O)NCCCOC(=O)c2ccc3ccccc3c2O)[C@H](O)CO)OC(C(=O)O)=C[C@@H]1NC(=N)N	9.15	7.30	Non-toxic	–
CC(=O)N[C@H]1[C@H]([C@H](OC(=O)NCCCOC(=O)c2ccc(O)c(O)c2)[C@H](O)CO)OC(C(=O)O)=C[C@@H]1NC(=N)N	8.54	7.28	Non-toxic	–
CC(=O)N[C@H]1[C@H]([C@H](OC(=O)NCCCOC(=O)c2cc(N)ccc2O)[C@H](O)CO)OC(C(=O)O)=C[C@@H]1NC(=N)N	8.07	8.48	Non-toxic	Activity (RAW264.7 [14]): Dose-dependent effect; pEC50 (Influenza A virus [15]): 6.37; Activity (Mus musculus [11]): Active; Activity (Influenza A virus [3]): inactive; Activity (Mus musculus [12]): Active; Activity (RAW264.7 [16]): Dose-dependent effect; Stability (Plasma [17]): Unstable; Activity (Influenza A virus [13]): Active
O=C(O)/C=C/c1ccc2c(c1)OCO2	< 4.00	< 4.00	Non-toxic	Activity (RAW264.7 [14]): Dose-dependent effect; Activity (RAW264.7 [16]): Dose-dependent effect
CC(=O)N[C@H]1[C@H]([C@H](OC(=O)NCCCOC(=O)/C=C/c2ccc3c(c2)OCO3)[C@H](O)CO)OC(C(=O)O)=C[C@@H]1NC(=N)N	8.27	7.18	Non-toxic	–
CC(=O)N[C@H]1[C@H]([C@H](O)[C@H](O)CO)OC(C(=O)OCCCOC(=O)/C=C/c2ccc(O)c(O)c2)=C[C@@H]1NC(=N)N	5.54	7.60	Non-toxic	Stability (Plasma [18]): Unstable; Stability (Plasma [19]): Unstable
CC(=O)N[C@H]1[C@H]([C@H](OC(=O)NCCCOC(=O)/C=C/c2ccc(O)c(O)c2)[C@H](O)CO)OC(C(=O)O)=C[C@@H]1NC(=N)N	8.54	8.85	Non-toxic	Activity (RAW264.7 [14]): Dose-dependent effect; Activity (Influenza A virus [20]): inactive; Stability (Plasma [21]): Unstable; pEC50 (Influenza A virus [15]): 7.30; Activity (Mus musculus [11]): Active; Activity (Influenza A virus [3]): Active; Activity (Mus musculus [12]): Active; Activity (RAW264.7 [16]): Dose-dependent effect; Ratio EC50 (Influenza A virus [22]): 13; Activity (Influenza A virus [6]): 40%; Stability (Plasma [23]): Unstable; Stability (Plasma [17]): Unstable; Activity (Influenza A virus [13]): Active; Activity (Influenza A virus [8]): Active; Activity (Influenza A virus [9]): Active
O=C(O)c1ccc2ccccc2c1O [CARBOXYNAPHTHOL]	< 4.00	< 4.00	Non-toxic	–
CC(=O)N[C@H]1[C@H]([C@H](OC(=O)NCCCNC(=O)c2ccc3ccccc3c2O)[C@H](O)CO)OC(C(=O)O)=C[C@@H]1NC(=N)N	8.51	8.18	Non-toxic	–
Nc1ccc(O)c(C(=O)O)c1 [MESALAMINE]	< 4.00	< 4.00	Non-toxic	Activity (RAW264.7 [14]): Dose-dependent effect; Activity (RAW264.7 [16]): Dose-dependent effect; Activity (Influenza A virus [13]): Active
CC(=O)N[C@H]1[C@H]([C@H](O)[C@H](O)CO)OC(C(=O)O)=C[C@@H]1N=C(N)N [ZANAMIVIR]	–	–	Non-toxic	–
CC(=O)N[C@H]1[C@H]([C@H](O)[C@H](O)CO)OC(C(=O)OCCCOC(=O)c2cc(N)ccc2O)=C[C@@H]1NC(=N)N	6.00	7.80	Non-toxic	–
CC(=O)N[C@H]1[C@H]([C@H](O)[C@H](O)CO)OC(C(=O)OCCCOC(=O)c2ccc3ccccc3c2O)=C[C@@H]1NC(=N)N	6.23	–	Non-toxic	Stability (Plasma [24]): Unstable; Stability (Plasma [17]): Unstable
CC(=O)N[C@H]1[C@H]([C@H](OC(=O)NCCCO)[C@H](O)CO)OC(C(=O)O)=C[C@@H]1NC(=N)N	7.93	6.98	Non-toxic	pEC50 (Influenza A virus [15]): 6.09
O=C(O)/C=C/c1ccc(O)c(O)c1 [CAFFEIC ACID]	< 4.00	< 4.00	Non-toxic	Activity (RAW264.7 [14]): Dose-dependent effect; Activity (Influenza A virus [10]): inactive; Activity (RAW264.7 [16]): Dose-dependent effect; Activity (Influenza A virus [13]): Active
